According to patent publication US20110098269A1, “Substituted Pyridazinone Derivatives as Histamine-3 (H3) Receptor Ligands” (Cephalon, Inc., priority 2008, published 2011):
pKi: −log10 of the molar value. Where a name gives a salt, the structure may show the parent alone.

What was measured:
human H3 receptor = molecular target: T1, human H3 receptor (Homo sapiens, UniProt Q9Y5N1); assay: Human H3 radioligand binding ([3H]-N-alpha-methylhistamine, CHO cell membranes); conditions: Human H3 binding constant, class symbols; read-out: hH3 Ki
T1 construct: expressed in transfected cells
Procedure: (§1) Methods: CHO cells stably expressing the human H3 receptor (GenBank: NM_007232) were harvested and cell pellets were frozen (−80° C.). Cell pellets were resuspended in 5 mM Tris-HCl, pH 7.5 with 5 nM EDTA and a cocktail of protease inhibitors (Complete Protease Inhibitor Tablets, Roche Diagnostics). Cells were disrupted using a polytron cell homogenizer and the suspension was centrifuged at 1000×g for 10 minutes at 4° C. The pellet was discarded and the supernatant centrifuged at 40,000×g for 30 min at 4° C. This membrane pellet was washed in membrane buffer containing 50 mM Tris-HCl, pH 7.5 with 0.6 mM EDTA, 5 mM MgCl2 and protease inhibitors, recentrifuged as above and the final pellet resuspended in membrane buffer plus 250 mM sucrose and frozen at −80° C.
(§2) Radioligand Binding. Membranes were resuspended in 50 mM Tris HCl (pH 7.4), 5 mM MgCl2, 0.1% BSA. The membrane suspensions (10 μg protein per well) were incubated in a 96 well microtiter plate with [^3H]-N-alpha-methylhistamine (approximately 1 nM final concentration), test compounds at various concentrations (0.01 nM-30 μM) and scintillation proximity beads (Perkin Elmer, FlashBlueGPCR Scintillating Beads) in a final volume of 80 μl for 4 hours at room temperature, protected from light. Non-specific binding was determined in the presence of 10 μM clobenpropit. Radioligand bound to receptor, and therefore in proximity to the scintillation beads, was measured using a MicroBeta scintillation counter.

[1] = molecular target: T2, rat histamine H3 receptor (Rattus norvegicus, UniProt Q9QYN8); assay: Rat H3 radioligand binding ([3H]-N-alpha-methylhistamine, CHO-A3 cell membranes); conditions: Rat H3 binding constant, class symbols; read-out: rH3 Ki
T2 construct: encoding the entire 445-amino-acid rat histamine H3 receptor; expressed in transfected cells
Description: as §1, with “Cell line development and membrane preparation. The rat” for “Methods: CHO cells stably expressing the human”, “cDNA was PCR amplified from reverse-transcribed RNA pooled from rat thalamus, hypothalamus, striatum and prefrontal cortex with a sequence corresponding to by #338-1672 of Genbank file #NM_053506, encoding the entire 445-amino-acid rat histamine H3 receptor. This was engineered into the pIRES-neo3 mammalian expression vector, which was stably transfected into the CHO-A3 cell line (Euroscreen, Belgium), followed by clonal selection by limiting dilution. Cells” for “(GenBank: NM_007232)”
as §2

T1 sequence (Q9Y5N1 whole entry): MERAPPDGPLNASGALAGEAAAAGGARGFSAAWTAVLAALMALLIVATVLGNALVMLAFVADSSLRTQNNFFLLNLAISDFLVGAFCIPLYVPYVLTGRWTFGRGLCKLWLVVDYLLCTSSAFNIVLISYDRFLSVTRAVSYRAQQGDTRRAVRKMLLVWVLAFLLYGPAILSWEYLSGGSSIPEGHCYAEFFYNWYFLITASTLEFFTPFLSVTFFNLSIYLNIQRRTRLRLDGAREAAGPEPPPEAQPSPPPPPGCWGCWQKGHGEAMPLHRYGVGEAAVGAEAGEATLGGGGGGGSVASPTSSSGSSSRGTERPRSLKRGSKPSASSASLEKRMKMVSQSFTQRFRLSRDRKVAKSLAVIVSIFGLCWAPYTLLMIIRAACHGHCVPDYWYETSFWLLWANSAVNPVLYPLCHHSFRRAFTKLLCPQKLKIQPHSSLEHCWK
T2 sequence (Q9QYN8 whole entry): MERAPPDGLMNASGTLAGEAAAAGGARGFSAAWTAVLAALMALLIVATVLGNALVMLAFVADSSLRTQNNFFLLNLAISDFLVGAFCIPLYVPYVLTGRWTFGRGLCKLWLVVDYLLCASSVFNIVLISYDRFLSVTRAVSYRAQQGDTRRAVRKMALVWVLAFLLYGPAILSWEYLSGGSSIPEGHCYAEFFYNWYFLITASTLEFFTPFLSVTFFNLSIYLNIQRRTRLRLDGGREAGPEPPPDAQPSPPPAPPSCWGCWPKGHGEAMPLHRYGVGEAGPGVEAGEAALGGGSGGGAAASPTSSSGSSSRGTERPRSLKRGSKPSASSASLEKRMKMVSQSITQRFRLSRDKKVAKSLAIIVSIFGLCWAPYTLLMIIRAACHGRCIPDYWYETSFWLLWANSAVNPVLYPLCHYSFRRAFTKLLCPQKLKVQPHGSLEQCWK

melting point [°C]	pKi (human H3 receptor)	pKi [1]	Compound
295 to 298	–	–	C[C@@H]1CCCN1CCc1ccc2cc(-c3ccc(=O)[nH]n3)ccc2c1 (as salt: HCl) [Example 70, 6-{6-[2-((R)-2-Methyl-pyrrolidin-1-yl)-ethyl]-naphthalen-2-yl}-2H-pyridazin-3-one]
104 to 105	> 7.00	> 7.00	CCCCN1N=C(c2ccc3c(c2)CCN(C2CCC2)CC3)CCC1=O [Example 13, 2-Butyl-6-(3-cyclobutyl-2,3,4,5-tetrahydro-1H-benzo[d]azepin-7-yl)-4,5-dihydro-2H-pyridazin-3-one]
239 to 240	–	–	Cn1nc(-c2ccc3c(c2)CCN(C2CCCC2)CC3)ccc1=O (as salt: HCl) [Example 23, 6-(3-Cyclopentyl-2,3,4,5-tetrahydro-1H-benzo[d]azepin-7-yl)-2-methyl-2H-pyridazin-3-one. HCl]
250 to 251	> 7.00	> 7.00	O=c1ccc(-c2ccc3c(c2)CCN(C2CCC2)CC3)n[nH]1 [Example 2, 6-(3-Cyclobutyl-2,3,4,5-tetrahydro-1H-benzo[d]azepin-7-yl)-2H-pyridazin-3-one]
134 to 137	> 7.00	> 7.00	Cn1nc(-c2ccc(Oc3ccc4c(c3)CCN(C3CCC3)CC4)nc2)ccc1=O [Example 26, 6-[6-(3-Cyclobutyl-2,3,4,5-tetrahydro-1H-benzo[d]azepin-7-yloxy)-pyridin-3-yl]-2-methyl-2H-pyridazin-3-one]
–	> 7.00	> 7.00	C[C@@H]1CCCN1CCc1ccc(-c2ccc(=O)n(-c3ccc(F)cc3)n2)cc1 [Example 67]
–	> 7.00	6.00 to 7.00	CN(CCc1ccc(-c2ccc(=O)n(C)n2)cc1)C1CCC1 [Example 61]
–	6.00 to 7.00	6.00 to 7.00	Cn1nc(-c2ccc(CCN3CCCCC3)cc2)ccc1=O [Example 64]
–	6.00 to 7.00	6.00 to 7.00	CCN(CCc1ccc(-c2ccc(=O)n(C)n2)cc1)C1CCC1 [Example 62]
–	6.00 to 7.00	6.00 to 7.00	Cn1nc(-c2ccc(CCN3CCC3)cc2)ccc1=O [Example 60]
–	> 7.00	6.00 to 7.00	O=C(c1ccc(-c2ccc(=O)n(-c3ccc(F)cc3)n2)cc1)N1CCC[C@H]1CN1CCCC1 [Example 49, 2-(4-Fluoro-phenyl)-6-[4-((S)-2-pyrrolidin-1-ylmethyl-pyrrolidine-1-carbonyl)-phenyl]-2H-pyridazin-3-one]
–	< 6.00	< 6.00	O=c1ccc(-c2ccc(CCN3CCOCC3)cc2)nn1-c1ccccc1 [Example 68]
–	> 7.00	> 7.00	C[C@@H]1CCCN1CCc1ccc(-c2ccc(=O)n(Cc3ccccc3)n2)cc1 [Example 53]
–	> 7.00	> 7.00	C[C@@H]1CCCN1CCc1ccc(-c2ccc(=O)n(-c3ccccc3)n2)cc1 [Example 66]

Continued, compound first:

Compound	melting point [°C]	pKi (human H3 receptor)	pKi [1]
O=C1CCC(c2ccc3c(c2)CCN(C2CCC2)CC3)=NN1CCO [Example 17, 6-(3-Cyclobutyl-2,3,4,5-tetrahydro-1H-benzo[d]azepin-7-yl)-2-(2-hydroxy-ethyl)-4,5-dihydro-2H-pyridazin-3-one]	141 to 142	> 7.00	> 7.00
O=C1CCC(c2ccc3c(c2)CCN(C2CCC2)CC3)=NN1C1CCC1 [Example 19, 2-Cyclobutyl-6-(3-cyclobutyl-2,3,4,5-tetrahydro-1H-benzo[d]azepin-7-yl)-4,5-dihydro-2H-pyridazin-3-one]	126 to 128	> 7.00	6.00 to 7.00
O=C1NN=C(c2ccc3c(c2)CCN(C2CCC2)CC3)C2CCCCC12 (stereo not drawn) [Example 44, 4-(3-Cyclobutyl-2,3,4,5-tetrahydro-1H-benzo[d]azepin-7-yl)-4-a,5,6,7,8,8a-hexahydro-2H-phthalazin-1-one]	223 to 225	> 7.00	> 7.00
O=C1NN=C(c2ccc3c(c2)CCN(C2CCC2)CC3)C2CCCC12 (stereo not drawn) [Example 42, 4-(3-Cyclobutyl-2,3,4,5-tetrahydro-1H-benzo[d]azepin-7-yl)-2,4a,5,6,7,7a-hexahydro-cyclopenta[d]pyridazin-1-one]	198 to 201	> 7.00	> 7.00
O=C1CCC(c2ccc3c(c2)CCN(C2CCC2)CC3)=NN1 [Example 9, 6-(3-Cyclobutyl-2,3,4,5-tetrahydro-1H-benzo[d]azepin-7-yl)-4,5-dihydro-2H-pyridazin-3-one]	178 to 179	> 7.00	6.00 to 7.00
CC(C)N1CCc2ccc(C3=NN(C(C)C)C(=O)CC3)cc2CC1 [Example 6, 2-Isopropyl-6-(3-isopropyl-2,3,4,5-tetrahydro-1H-benzo[d]azepin-7-yl)-4,5-dihydro-2H-pyridazin-3-one]	125 to 126	6.00 to 7.00	6.00 to 7.00
O=C1NN=C(c2ccc3c(c2)CCN(C2CCC2)CC3)C2CC12 (stereo not drawn) (as salt: HCl) [Example 40, 5-(3-Cyclobutyl-2,3,4,5-tetrahydro-1H-benzo[d]azepin-7-yl)-3,4-diaza-bicyclo[4.1.0]hept-4-en-2-one]	129 to 132	–	–
O=C1NN=C(c2ccc3c(c2)CCN(C2CCC2)CC3)C2CC12 (stereo not drawn) [Example 40, 5-(3-Cyclobutyl-2,3,4,5-tetrahydro-1H-benzo[d]azepin-7-yl)-3,4-diaza-bicyclo[4.1.0]hept-4-en-2-one]	–	> 7.00	6.00 to 7.00
COCn1ncc(Oc2ccc3c(c2)CCN(C2CCC2)CC3)cc1=O [Example 37, 5-(3-Cyclobutyl-2,3,4,5-tetrahydro-1H-benzo[d]azepin-7-yloxy)-2-methoxymethyl-2H-pyridazin-3-one]	–	> 7.00	6.00 to 7.00
Cn1ncc(Oc2ccc3c(c2)CCN(C2CCC2)CC3)cc1=O [Example 35, 5-(3-Cyclobutyl-2,3,4,5-tetrahydro-1H-benzo[d]azepin-7-yloxy)-2-methyl-2H-pyridazin-3-one]	–	> 7.00	6.00 to 7.00
O=C1NN=C(c2ccc3c(c2)CCNCC3)C2CC12 (stereo not drawn) (as salt: HCl) [Example 39, 5-(2,3,4,5-Tetrahydro-1H-benzo[d]azepin-7-yl)-3,4-diaza-bicyclo[4.1.0]hept-4-en-2-one]	148 to 151	–	–
Cn1ncc(Oc2ccc3c(c2)CCN(C2CCCC2)CC3)c(Br)c1=O [Example 32, 4-Bromo-5-(3-cyclopentyl-2,3,4,5-tetrahydro-1H-benzo[d]azepin-7-yloxy)-2-methyl-2H-pyridazin-3-one]	–	> 7.00	> 7.00
CC(C)N(C)CCc1ccc(-c2ccc(=O)n(C)n2)cc1 [Example 54]	–	6.00 to 7.00	6.00 to 7.00
CC(C)n1nc(-c2ccc3c(c2)CCNCC3)ccc1=O [Example 5, 2-Isopropyl-6-(2,3,4,5-tetrahydro-1H-benzo[d]azepin-7-yl)-2H-pyridazin-3-one]	–	6.00 to 7.00	6.00 to 7.00
CCN(CC)CCc1ccc(-c2ccc(=O)n(C)n2)cc1 [Example 56]	–	6.00 to 7.00	6.00 to 7.00
CCNCCc1ccc(-c2ccc(=O)n(C)n2)cc1 [Example 57]	–	6.00 to 7.00	6.00 to 7.00
CC(C)N1CCc2ccc(-c3ccc(=O)n(C)n3)cc2CC1 (as salt: HCl) [Example 22, 6-(3-Isopropyl-2,3,4,5-tetrahydro-1H-benzo[d]azepin-7-yl)-2-methyl-2H-pyridazin-3-one. HCl]	254 to 256	–	–
Cn1ncc(Oc2ccc3c(c2)CCN(C2CCCC2)CC3)cc1=O [Example 36, 5-(3-Cyclopentyl-2,3,4,5-tetrahydro-1H-benzo[d]azepin-7-yloxy)-3-methyl-2H-pyridazin-3-one]	–	> 7.00	6.00 to 7.00
O=C1NN=C(c2ccc3c(c2)CCNCC3)C2CC12 (stereo not drawn) [Example 39, 5-(2,3,4,5-Tetrahydro-1H-benzo[d]azepin-7-yl)-3,4-diaza-bicyclo[4.1.0]hept-4-en-2-one]	–	6.00 to 7.00	6.00 to 7.00
COCn1ncc(Oc2ccc3c(c2)CCN(C2CCCC2)CC3)cc1=O [Example 38, 5-(3-Cyclopentyl-2,3,4,5-tetrahydro-1H-benzo[d]azepin-7-yloxy)-2-methoxymethyl-2H-pyridazin-3-one]	–	> 7.00	6.00 to 7.00
